# Results: patent US20060281700A1, “SYNERGISTIC MODULATION OF FLT3 KINASE USING AMINOPYRIMIDINES KINASE MODULATORS” (priority 2005, published 2006)
# Experiments:
# [1] = test system: MV4-11 cells; assay: Inhibition of MV4-11 cell proliferation (CellTiterGlo, 72 hours); type: cell-based; settings: Homo sapiens; 72 hours growth; uncertainty ±20%
# Description: Inhibition Of MV4-11 and Baf3 Cell Proliferation
# To assess the cellular potency of the FLT3 inhibitors of Formula I′, FLT3 specific growth inhibition was measured in the leukemic cell line MV4-11 (ATCC Number: CRL-9591). […] MV4-11 cells cannot grow and survive without active FLT3ITD.
# To measure proliferation inhibition by test compounds, the luciferase based CellTiterGlo reagent (Promega), which quantifies total cell number based on total cellular ATP concentration, was used. Cells are plated at 10,000 cells per well in 100 ul of in RPMI media containing penn/strep, 10% FBS and 1 ng/ml GM-CSF or 1 ng/ml IL-3 for MV4-11 and Baf3 cells respectively.
# Compound dilutions or 0.1% DMSO (vehicle control) are added to cells and the cells are allowed to grow for 72 hours at standard cell growth conditions (37° C., 5% CO2). For activity measurements in MV4-11 cells grown in 50% plasma, cells were plated at 10,000 cells per well in a 1:1 mixture of growth media and human plasma (final volume of 100 μL). To measure total cell growth an equal volume of CellTiterGlo reagent was added to each well, according to the manufacturer's instructions, and luminescence was quantified. Total cell growth was quantified as the difference in luminescent counts (relative light units, RLU) of cell number at Day 0 compared to total cell number at Day 3 (72 hours of growth and/or compound treatment). One hundred percent inhibition of growth is defined as an RLU equivalent to the Day 0 reading. Zero percent inhibition was defined as the RLU signal for the DMSO vehicle control at Day 3 of growth. All data points are an average of triplicate samples. […] Inhibition and IC50 data analysis was done with GraphPad Prism using a non-linear regression fit with a multiparamater, sigmoidal dose-response (variable slope) equation.
# MV4-11 cells express the FLT3 internal tandem duplication mutation, and thus are entirely dependent upon FLT3 activity for growth. […] In contrast, the Baf3 cell proliferation is driven by the cytokine IL-3 and thus are used as a non-specific toxicity control for test compounds.
# [2] = molecular target: T1, isolated kinase domain of the human FLT3 receptor (a.a. 571-993) (Homo sapiens, UniProt P36888); assay: FLT3 Fluorescence Polarization Kinase Assay; type: biochemical; settings: 10 nM FLT3 571-993, 150 uM ATP; uncertainty ±10%
# T1 construct: isolated kinase domain of the human FLT3 receptor (a.a. 571-993)
# T1 sequence (P36888 571-993): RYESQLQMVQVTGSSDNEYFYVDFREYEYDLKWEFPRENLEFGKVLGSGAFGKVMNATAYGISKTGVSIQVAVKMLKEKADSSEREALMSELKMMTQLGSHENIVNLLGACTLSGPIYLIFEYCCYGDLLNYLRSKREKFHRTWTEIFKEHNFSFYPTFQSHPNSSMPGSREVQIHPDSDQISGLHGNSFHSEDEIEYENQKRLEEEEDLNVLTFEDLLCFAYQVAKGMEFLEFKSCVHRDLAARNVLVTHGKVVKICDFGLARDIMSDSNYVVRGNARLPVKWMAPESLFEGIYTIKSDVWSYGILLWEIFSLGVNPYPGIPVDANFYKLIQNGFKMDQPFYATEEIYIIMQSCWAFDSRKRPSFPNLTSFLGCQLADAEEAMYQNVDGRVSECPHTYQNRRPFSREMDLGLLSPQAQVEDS
# Description: FLT3 Fluorescence Polarization Kinase Assay
# To determine the activity of the FLT3 inhibitors of Formula I′ in an in vitro kinase assay, inhibition of the isolated kinase domain of the human FLT3 receptor (a.a. 571-993) was performed using the following fluorescence polarization (FP) protocol. The FLT3 FP assay utilizes the fluorescein-labeled phosphopeptide and the anti-phosphotyrosine antibody included in the Panvera Phospho-Tyrosine Kinase Kit (Green) supplied by Invitrogen. When FLT3 phosphorylates polyGlu4Tyr, the fluorescein-labeled phosphopeptide is displaced from the anti-phosphotyrosine antibody by the phosphorylated poly Glu4Tyr, thus decreasing the FP value. The FLT3 kinase reaction is incubated at room temperature for 30 minutes under the following conditions: 10 nM FLT3 571-993, 20 ug/mL poly Glu4Tyr, 150 uM ATP, 5 mM MgCl2, 1% compound in DMSO. The kinase reaction is stopped with the addition of EDTA. The fluorescein-labeled phosphopeptide and the anti-phosphotyrosine antibody are added and incubated for 30 minutes at room temperature.
# All data points are an average of triplicate samples. Inhibition and IC50 data analysis was done with GraphPad Prism using a non-linear regression fit with a multiparamater, sigmoidal dose-response (variable slope) equation.
IC50 [1],IC50 [2],Compound
672 nM,78 nM,"CO/N=C/c1c(N)ncnc1N1CCC(NC(=O)Nc2ccc(C3CCCCC3)cc2)CC1 [Number 22, 1-{1-[6-Amino-5-(methoxyimino-methyl)-pyrimidin-4-yl]-piperidin-4-yl}-3-(4-cyclohexyl-phenyl)-urea]"
856 nM,20 nM,"CO/N=C/c1c(N)ncnc1N1CCC(NC(=O)Nc2ccc(Oc3ccccc3)cc2)CC1 [Number 26, 1-{1-[6-Amino-5-(methoxyimino-methyl)-pyrimidin-4-yl]-piperidin-4-yl}-3-(4-phenoxy-phenyl)-urea]"
